Results reported in ChEMBL document CHEMBL1201862, “PubChem BioAssay data set” (2004).
The source made the active and inactive calls.

Assays:
[1] = biological target: ADP-ribosylation factor GTPase-activating protein 1 (Rattus norvegicus, UniProt Q62848); assay: Fluorescence polarization-based biochemical high throughput dose response screening assay to identify inhibitors of ADP-ribosylation factor GTPase activating protein 1 (ARFGAP1).; assay type: functional
[2] = biological target: Fructose-bisphosphate aldolase (Mycobacterium tuberculosis, UniProt P9WQA3); assay: Fluorescence-based biochemical high throughput dose response assay for inhibitors of the fructose-bisphosphate aldolase (FBA) of M. tuberculosis.; assay type: functional
Fructose-bisphosphate aldolase, sequence (P9WQA3 whole entry): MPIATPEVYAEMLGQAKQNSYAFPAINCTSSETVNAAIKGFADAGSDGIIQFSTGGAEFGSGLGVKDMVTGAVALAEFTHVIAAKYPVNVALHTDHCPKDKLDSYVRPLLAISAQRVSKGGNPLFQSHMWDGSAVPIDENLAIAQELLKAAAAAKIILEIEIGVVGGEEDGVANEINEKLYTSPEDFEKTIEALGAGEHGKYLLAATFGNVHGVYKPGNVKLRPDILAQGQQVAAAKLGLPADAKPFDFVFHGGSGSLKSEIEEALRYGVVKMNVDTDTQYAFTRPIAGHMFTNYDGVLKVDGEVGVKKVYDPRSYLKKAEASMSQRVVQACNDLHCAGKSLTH

[3] = biological target: T1, Endoribonuclease toxin MazF (Escherichia coli K-12, UniProt P0AE70); assay: activation of MazEF endoribonuclease cleavage – biochemical, fluorescence, single-stranded RNA substrate, uHTS hits, dose response (AID 588481); assay type: functional
T1 sequence (P0AE70 whole entry): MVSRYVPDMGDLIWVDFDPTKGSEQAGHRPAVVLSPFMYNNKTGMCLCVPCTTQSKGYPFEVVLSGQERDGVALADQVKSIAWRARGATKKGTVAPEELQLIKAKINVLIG

[4] = biological target: Heat shock protein HSP 90-alpha (Homo sapiens, UniProt P07900); assay type: functional, organism-based
[5] = biological target: T1, Endoribonuclease toxin MazF; assay: substrate-only fluorescence increase artefacts – biochemical, single-stranded RNase substrate, counter-screen for MazEF activator project, dose response (AID 588502); assay type: functional
Melanocortin receptor 4 = Melanocortin receptor 4 (Homo sapiens, UniProt P32245); assay type: functional, cell-based;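 further: Cell-based assay with luminescence read-out, confirmatory dose-response testing for agonist activity of biased ligands at MC4R; human U2OS cells with tagged receptor and beta-arrestin; potency of agonists that increase receptor coupling to beta-arrestin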
Melanocortin receptor 4, sequence (P32245 whole entry): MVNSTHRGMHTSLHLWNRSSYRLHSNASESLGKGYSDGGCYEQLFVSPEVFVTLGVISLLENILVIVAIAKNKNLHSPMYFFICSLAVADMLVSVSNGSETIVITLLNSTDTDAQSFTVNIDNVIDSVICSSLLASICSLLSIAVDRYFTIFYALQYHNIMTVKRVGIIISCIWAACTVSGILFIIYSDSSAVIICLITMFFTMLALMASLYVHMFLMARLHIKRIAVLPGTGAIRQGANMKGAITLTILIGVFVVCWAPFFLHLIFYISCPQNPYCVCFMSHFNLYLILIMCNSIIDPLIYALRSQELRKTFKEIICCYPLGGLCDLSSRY

[6] = biological target: T2, Probable nicotinate-nucleotide adenylyltransferase (Staphylococcus aureus (strain N315), UniProt P65502); assay type: functional, Staphylococcus aureus subsp. aureus N315;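 on IC50 Mean: confirmatory dose-response retesting of NadD inhibitor hits first found in an ultra-high-throughput screen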
T2 sequence (P65502 whole entry): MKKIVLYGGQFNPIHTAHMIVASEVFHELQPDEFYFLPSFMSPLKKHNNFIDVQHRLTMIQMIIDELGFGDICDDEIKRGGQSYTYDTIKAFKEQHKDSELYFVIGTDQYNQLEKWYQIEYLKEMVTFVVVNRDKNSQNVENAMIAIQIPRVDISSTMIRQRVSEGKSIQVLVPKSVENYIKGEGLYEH

[7] = biological target: T2, Probable nicotinate-nucleotide adenylyltransferase; assay type: functional, Staphylococcus aureus subsp. aureus N315; details: read-out: IC50_Mean
[8] = biological target: T3, Methionyl-tRNA synthetase, putative (Trypanosoma brucei brucei, UniProt Q38C91); assay type: functional, Trypanosoma brucei brucei strain 927/4 GUTat10.1
T3 sequence (Q38C91 whole entry): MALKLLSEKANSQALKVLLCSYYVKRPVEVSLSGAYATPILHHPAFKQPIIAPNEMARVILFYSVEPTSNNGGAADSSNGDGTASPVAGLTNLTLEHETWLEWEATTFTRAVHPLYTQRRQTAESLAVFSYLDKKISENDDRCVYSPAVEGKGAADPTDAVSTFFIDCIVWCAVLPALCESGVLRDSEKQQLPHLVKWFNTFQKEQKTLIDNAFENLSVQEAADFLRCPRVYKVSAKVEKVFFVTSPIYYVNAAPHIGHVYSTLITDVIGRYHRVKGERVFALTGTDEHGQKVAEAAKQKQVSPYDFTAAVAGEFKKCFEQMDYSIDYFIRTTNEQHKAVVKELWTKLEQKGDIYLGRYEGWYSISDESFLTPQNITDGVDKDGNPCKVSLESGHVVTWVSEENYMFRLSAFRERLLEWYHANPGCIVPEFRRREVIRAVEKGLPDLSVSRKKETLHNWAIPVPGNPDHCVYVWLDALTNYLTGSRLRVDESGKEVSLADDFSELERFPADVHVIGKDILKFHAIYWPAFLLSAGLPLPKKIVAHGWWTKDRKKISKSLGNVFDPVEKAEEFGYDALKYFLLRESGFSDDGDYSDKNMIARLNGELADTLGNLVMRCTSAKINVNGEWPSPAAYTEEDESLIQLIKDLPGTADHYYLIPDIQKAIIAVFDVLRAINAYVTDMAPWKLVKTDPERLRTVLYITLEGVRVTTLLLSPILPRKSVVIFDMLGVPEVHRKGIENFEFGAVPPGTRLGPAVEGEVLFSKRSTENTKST

[9] = biological target: T3, Methionyl-tRNA synthetase, putative; assay type: functional, Trypanosoma brucei brucei strain 927/4 GUTat10.1; remark: listed apart in the source
[10] = blockers of HIV-1 envelope-mediated cell-cell fusion – cherry-pick, dose response (AID 652057); assay type: functional, cell-based
[11] = viability loss in CEM21 cells – cell-based, CellTiter-Glo luminescence, cherry-picked, cytotoxicity control for viral fusion inhibitor project, dose response (AID 652042); assay type: functional;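 further: potency for signal decrease meaning cytotoxicity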
[12] = blockers of HIV-1 ZM109 envelope-driven cell-cell fusion – HeLa effector, CEM target cells, luciferase, cherry-pick, dose response (AID 652058); assay type: functional, cell-based;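 further: luciferase signal from HIV-1 Env mediated cell-cell fusion of effector and target cells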
[13] = off-target signal loss in HeLa-CEM21 co-culture – HeLa F-luc CTL cells, cherry-picked, counter-screen for HIV-1 Env fusion inhibitor project, dose response (AID 652040); assay type: functional, cell-based;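 further: potency for signal decrease marking cytotoxic or nonspecific inhibition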
[14] = HIV-1 AD8 envelope cell-cell fusion blockers – cherry-pick, dose response (AID 652062); assay type: functional, cell-based;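 further: luciferase signal from cell-cell fusion driven by HIV-1 clade B AD8 Env; potency is for inhibitors of fusion seen as a drop in luminescence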
H9c2 = assay: cells; assay type: functional, cell-based; details: Rattus norvegicus, H9c2, Myocardium
[15] = biological target: Long-chain-fatty-acid--AMP ligase FadD28 (Mycobacterium tuberculosis, UniProt P9WQ59); assay: Fluorescence polarization aasay to screen for inhibitors that compete for the binding of FadD28 to a bisubstrate Measured in Biochemical System Using Plate Reader - 2147-01_Inhibitor_Dose_CherryPick_Activity.; assay type: functional, Mycobacterium tuberculosis H37Rv
Long-chain-fatty-acid--AMP ligase FadD28, sequence (P9WQ59 whole entry): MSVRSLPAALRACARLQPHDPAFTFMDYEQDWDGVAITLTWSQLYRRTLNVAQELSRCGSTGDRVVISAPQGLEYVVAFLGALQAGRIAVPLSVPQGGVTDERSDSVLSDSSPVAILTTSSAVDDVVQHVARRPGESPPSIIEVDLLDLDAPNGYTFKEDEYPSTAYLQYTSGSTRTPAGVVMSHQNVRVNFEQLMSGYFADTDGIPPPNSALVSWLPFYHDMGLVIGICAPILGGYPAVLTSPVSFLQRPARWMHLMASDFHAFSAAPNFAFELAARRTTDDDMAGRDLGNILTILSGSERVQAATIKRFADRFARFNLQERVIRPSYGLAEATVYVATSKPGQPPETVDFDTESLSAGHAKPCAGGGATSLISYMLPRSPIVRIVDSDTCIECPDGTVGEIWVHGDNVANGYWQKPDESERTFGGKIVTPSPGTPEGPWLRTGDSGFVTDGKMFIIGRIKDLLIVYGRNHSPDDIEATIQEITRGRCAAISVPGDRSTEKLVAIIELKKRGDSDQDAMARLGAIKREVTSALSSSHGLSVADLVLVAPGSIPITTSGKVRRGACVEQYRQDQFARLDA

[16] = biological target: T4, Sentrin-specific protease 8 (Homo sapiens, UniProt Q96LD8); assay type: functional
T4 sequence (Q96LD8 whole entry): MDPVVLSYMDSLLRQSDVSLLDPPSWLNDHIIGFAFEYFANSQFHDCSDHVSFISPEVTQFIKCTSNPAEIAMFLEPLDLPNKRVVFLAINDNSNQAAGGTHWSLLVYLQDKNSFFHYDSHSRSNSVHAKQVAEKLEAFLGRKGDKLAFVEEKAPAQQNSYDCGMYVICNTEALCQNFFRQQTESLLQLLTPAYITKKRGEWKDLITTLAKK

[17] = biological target: T4, Sentrin-specific protease 8; assay type: functional; remark: listed apart in the source
Vero = assay: viability loss in Vero cells – cell-based, plate reader, cherry-pick samples, cytotoxicity control, dose response (AID 687020); assay type: functional; details: Chlorocebus sabaeus
Beta-lactamase [18] = biological target: Beta-lactamase (Pseudomonas aeruginosa, UniProt Q79MP6);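 further: biochemical dose-response test of metallo-beta-lactamase enzyme inhibition, read out by epi-absorbance; purified recombinant IMP-1 metallo-beta-lactamase with nitrocefin as substrate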
Beta-lactamase (Pseudomonas aeruginosa, UniProt Q79MP6), sequence (Q79MP6 whole entry): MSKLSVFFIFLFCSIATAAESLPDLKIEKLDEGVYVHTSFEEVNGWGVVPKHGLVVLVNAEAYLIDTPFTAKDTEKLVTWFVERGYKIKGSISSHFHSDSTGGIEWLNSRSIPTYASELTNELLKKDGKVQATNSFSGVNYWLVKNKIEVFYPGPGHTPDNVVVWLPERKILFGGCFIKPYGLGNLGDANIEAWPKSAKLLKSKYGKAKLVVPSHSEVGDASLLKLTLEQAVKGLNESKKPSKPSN

Beta-lactamase [19] = biological target: Beta-lactamase (Salmonella choleraesuis (strain SC-B67), UniProt Q5J463)
Beta-lactamase (Salmonella choleraesuis (strain SC-B67), UniProt Q5J463), sequence (Q5J463 whole entry): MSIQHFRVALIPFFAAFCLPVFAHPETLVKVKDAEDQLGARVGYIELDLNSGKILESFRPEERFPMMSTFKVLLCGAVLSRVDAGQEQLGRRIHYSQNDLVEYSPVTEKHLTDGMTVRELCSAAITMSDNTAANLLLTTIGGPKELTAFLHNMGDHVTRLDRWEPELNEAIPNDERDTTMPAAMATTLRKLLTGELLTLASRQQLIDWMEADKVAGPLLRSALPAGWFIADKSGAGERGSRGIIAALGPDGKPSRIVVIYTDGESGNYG

Genome polyprotein = Genome polyprotein (dengue virus type 2, UniProt P29990); assay: flavivirus cap methylation enzyme inhibition – biochemical, confirmation dose response, primary screen (AID 588689); assay type: functional
Genome polyprotein, sequence (P29990 2492-3391 limits assumed): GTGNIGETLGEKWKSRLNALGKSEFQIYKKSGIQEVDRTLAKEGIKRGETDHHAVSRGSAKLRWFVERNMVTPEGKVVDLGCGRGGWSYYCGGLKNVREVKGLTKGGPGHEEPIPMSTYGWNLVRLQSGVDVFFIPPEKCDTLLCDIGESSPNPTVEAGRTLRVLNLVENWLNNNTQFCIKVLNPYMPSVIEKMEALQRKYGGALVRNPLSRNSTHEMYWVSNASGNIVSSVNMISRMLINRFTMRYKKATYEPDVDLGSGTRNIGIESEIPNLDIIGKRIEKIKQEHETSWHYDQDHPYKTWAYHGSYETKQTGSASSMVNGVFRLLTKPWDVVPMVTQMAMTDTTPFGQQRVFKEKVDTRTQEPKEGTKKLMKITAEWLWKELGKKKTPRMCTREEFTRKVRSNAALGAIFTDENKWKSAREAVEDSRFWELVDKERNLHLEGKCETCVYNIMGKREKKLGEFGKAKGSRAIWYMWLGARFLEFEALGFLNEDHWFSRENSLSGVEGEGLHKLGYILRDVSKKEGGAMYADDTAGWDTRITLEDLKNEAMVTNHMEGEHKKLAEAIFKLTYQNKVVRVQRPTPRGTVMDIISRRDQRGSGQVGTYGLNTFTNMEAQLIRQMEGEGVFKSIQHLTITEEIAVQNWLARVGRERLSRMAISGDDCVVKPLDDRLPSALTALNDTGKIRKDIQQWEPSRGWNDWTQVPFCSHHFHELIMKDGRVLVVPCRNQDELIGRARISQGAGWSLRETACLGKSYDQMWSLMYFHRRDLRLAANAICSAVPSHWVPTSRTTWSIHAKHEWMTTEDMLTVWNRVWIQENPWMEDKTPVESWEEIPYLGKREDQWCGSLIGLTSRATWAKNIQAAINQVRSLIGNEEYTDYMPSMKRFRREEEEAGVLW

[20] = Counterscreen for inhibitors of Trypanosoma brucei methionyl tRNA synthetase (MetRS): Luminescence-based cell-based high throughput dose response assay to identify compounds that are cytotoxic to Jurkat human T lymphocyte cells.; assay type: functional
Cytochrome P450 2D6 = Cytochrome P450 2D6 (Homo sapiens, UniProt P10635);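 further: CYP2D6 member of a cytochrome P450 panel assay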
Cytochrome P450 2D6, sequence (P10635 whole entry): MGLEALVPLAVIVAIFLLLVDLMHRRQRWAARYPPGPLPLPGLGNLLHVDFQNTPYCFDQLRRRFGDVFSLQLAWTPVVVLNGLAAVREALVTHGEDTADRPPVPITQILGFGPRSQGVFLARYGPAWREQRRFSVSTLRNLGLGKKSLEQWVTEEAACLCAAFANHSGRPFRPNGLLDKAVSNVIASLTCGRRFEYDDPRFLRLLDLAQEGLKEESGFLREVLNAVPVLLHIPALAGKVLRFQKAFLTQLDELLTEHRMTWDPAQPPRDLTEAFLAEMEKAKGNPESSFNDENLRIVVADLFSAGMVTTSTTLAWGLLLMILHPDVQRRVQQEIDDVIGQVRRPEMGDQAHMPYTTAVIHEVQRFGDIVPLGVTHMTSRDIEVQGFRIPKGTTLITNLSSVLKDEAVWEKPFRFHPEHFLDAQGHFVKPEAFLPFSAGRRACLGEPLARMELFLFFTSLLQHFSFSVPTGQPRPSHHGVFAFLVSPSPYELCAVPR

Cytochrome P450 1A2 = biological target: T5, Cytochrome P450 1A2 (Homo sapiens, UniProt P05177);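 further: PubChem cytochrome P450 panel assay, CYP1A2 panel member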
T5 sequence (P05177 whole entry): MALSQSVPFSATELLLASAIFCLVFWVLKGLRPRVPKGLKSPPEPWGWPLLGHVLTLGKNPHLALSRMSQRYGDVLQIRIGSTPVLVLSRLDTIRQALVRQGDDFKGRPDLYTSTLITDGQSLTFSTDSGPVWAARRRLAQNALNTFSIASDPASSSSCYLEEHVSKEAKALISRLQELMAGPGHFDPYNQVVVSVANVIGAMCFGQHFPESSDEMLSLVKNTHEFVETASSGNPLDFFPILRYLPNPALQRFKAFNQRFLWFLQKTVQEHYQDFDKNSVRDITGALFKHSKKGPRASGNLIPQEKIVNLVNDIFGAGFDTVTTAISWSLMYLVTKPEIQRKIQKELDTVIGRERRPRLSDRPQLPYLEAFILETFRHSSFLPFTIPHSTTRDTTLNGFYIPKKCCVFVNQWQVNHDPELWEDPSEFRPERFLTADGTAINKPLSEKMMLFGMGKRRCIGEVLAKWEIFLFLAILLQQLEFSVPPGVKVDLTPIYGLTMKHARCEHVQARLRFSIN

Cytochrome P450 2C9 = Cytochrome P450 2C9 (Homo sapiens, UniProt P11712)
Cytochrome P450 2C9, sequence (P11712 whole entry): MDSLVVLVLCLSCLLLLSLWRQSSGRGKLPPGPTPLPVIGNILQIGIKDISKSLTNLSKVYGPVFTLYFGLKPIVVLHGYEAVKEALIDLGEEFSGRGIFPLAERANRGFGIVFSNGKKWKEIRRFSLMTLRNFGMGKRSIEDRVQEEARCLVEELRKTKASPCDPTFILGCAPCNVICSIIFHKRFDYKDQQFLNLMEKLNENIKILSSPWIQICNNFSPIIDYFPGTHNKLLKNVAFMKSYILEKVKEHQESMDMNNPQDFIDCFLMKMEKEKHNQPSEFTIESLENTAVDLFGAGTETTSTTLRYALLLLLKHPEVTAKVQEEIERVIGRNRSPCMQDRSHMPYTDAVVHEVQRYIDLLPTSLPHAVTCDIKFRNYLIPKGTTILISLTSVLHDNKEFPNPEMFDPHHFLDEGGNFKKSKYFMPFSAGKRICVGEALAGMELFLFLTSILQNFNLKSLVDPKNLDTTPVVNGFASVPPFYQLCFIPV

Aminopeptidase N = biological target: T6, Aminopeptidase N (Plasmodium falciparum FcB1/Columbia, UniProt O96935); assay: malaria alanyl aminopeptidase activity blockers – biochemical, fluorogenic H-Leu-NHMec substrate, 1536-well (AID 1445); design: species or system Plasmodium falciparum 3D7, 3D7
T6 sequence (O96935 whole entry): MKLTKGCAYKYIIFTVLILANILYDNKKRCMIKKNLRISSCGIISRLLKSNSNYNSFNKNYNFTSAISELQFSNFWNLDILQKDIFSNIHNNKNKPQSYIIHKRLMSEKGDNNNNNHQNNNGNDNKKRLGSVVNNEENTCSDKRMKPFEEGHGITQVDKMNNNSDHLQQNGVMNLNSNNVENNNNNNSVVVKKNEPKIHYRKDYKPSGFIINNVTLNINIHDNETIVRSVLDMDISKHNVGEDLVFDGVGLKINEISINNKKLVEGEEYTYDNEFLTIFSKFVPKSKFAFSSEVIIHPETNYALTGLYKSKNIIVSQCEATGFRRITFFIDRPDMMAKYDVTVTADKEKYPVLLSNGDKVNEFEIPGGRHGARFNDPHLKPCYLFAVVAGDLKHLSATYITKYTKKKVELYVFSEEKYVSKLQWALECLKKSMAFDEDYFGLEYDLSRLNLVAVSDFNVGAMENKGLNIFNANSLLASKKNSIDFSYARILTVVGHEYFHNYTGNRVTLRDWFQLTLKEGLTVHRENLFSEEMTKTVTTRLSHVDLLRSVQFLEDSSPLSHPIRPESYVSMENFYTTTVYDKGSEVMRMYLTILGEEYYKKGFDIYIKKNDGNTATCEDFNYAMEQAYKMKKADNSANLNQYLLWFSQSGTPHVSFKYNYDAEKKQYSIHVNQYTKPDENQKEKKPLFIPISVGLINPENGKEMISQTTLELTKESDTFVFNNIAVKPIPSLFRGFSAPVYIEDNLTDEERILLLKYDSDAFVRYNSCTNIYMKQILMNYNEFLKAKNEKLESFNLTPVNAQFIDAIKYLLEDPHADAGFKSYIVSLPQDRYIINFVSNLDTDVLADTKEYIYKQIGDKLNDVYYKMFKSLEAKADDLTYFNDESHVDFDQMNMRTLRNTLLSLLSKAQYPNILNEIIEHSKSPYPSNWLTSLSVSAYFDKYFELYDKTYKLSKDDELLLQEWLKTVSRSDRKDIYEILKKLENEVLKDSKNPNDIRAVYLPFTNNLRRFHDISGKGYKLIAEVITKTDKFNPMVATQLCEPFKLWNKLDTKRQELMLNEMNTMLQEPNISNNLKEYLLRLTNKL

ADP-ribosylation factor GTPase-activating protein 1, sequence (Q62848 whole entry): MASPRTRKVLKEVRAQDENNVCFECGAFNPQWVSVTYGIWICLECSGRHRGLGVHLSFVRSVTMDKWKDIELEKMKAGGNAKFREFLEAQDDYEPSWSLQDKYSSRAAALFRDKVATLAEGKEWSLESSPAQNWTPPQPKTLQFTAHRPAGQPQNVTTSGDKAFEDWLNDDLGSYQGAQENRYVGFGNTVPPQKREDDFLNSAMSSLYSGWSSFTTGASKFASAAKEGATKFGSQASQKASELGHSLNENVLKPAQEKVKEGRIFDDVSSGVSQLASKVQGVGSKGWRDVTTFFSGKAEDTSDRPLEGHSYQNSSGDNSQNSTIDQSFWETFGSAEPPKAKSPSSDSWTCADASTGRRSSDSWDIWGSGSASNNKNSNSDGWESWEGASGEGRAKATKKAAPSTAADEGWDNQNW

## Cc1ccc(-c2nn(-c3ccccc3)cc2/C=C/C(=O)Nc2nccs2)cc1
[1]
  IC50: 20.3 µM (inactive)

## O=C(Nc1ccc2c(c1)OCCO2)c1cccs1
[2]
  IC50: > 9.98 µM (inactive)

## COc1ccc2oc(=O)c(-c3csc(Nc4cccc(O)c4)n3)cc2c1
[3]
  EC50: > 99 µM (inactive)
[4]
  AC50: 7.16 µM (active)
[5]
  EC50: > 99 µM (inactive)
Melanocortin receptor 4
  EC50: > 89.2 µM (inactive)
[6]
  IC50: 19.2 µM (active)
[7]
  IC50: 29 µM (active)

## Cc1cccc(NS(=O)(=O)c2ccc3nc(-c4ccccc4)[nH]c3c2)c1C
[8]
  IC50: 119 µM (inactive)
[9]
  IC50: 14.6 µM (inactive)

## CCOc1ccc(C(O)(CCC(C)C)C(CN2CCOCC2)c2ccccc2)cc1 (stereo not given)
[10]
  AC50: 3.6 µM (active)
[11]
  AC50: 26.8 µM (active)
[12]
  AC50: 3.65 µM (active)
[13]
  AC50: 5.42 µM (active)
[14]
  AC50: 9.83 µM (active)

## COC(=O)c1cccc(Nc2nc(-c3cccnc3)nc3ccccc23)c1
H9c2
  IC50: 4.96 µM (active)
[1]
  IC50: 38.3 µM (inactive)

## COc1cccc(NC(=O)CC(=O)c2ccc([N+](=O)[O-])cc2)c1
[15]
  AC50: 94.1 µM (active)

## O=C(c1ccccc1)[C@@H]1[C@@H](C(=O)c2ccc(F)cc2)[C@@]2(C(=O)Nc3ccccc32)[C@H]2c3ccccc3C=CN12
[16]
  IC50: 12.1 µM (active)
[17]
  IC50: 1.21 µM (active)

## Cc1ccc(NC(=O)Cn2cccc2C2=NC(c3ccccc3)CO2)cc1C (stereo not given)
Vero
  AC50: 27.9 µM (active)

## O=C(CCN1C(=O)/C(=C/c2ccc(Cl)cc2)SC1=S)NCCCn1ccnc1
Beta-lactamase [18]
  IC50: > 59.6 µM (inactive)
Beta-lactamase [19]
  IC50: > 59.6 µM (inactive)

## O=C1CC(Nc2ccc([N+](=O)[O-])cc2)=NN1c1c(Cl)cc(Cl)cc1Cl
Genome polyprotein
  IC50: 48.4 µM (active)
[16]
  IC50: 12.3 µM (active)
[17]
  IC50: 16 µM (active)

## CSc1nccc(Oc2ccccc2Cl)n1
[2]
  IC50: > 9.99 µM (inactive)

## NC(Cc1ccc(C(F)(F)F)cc1)c1csc(NC(=O)Nc2ccccc2)n1 (stereo not given)
Melanocortin receptor 4
  EC50: > 89.2 µM (inactive)
[8]
  IC50: 1.47 µM (active)
[20]
  IC50: 24.7 µM (inactive)
[9]
  IC50: 2.39 µM (active)
[10]
  AC50: 2.85 µM (active)
[11]
  AC50: 11.3 µM (active)
[12]
  AC50: 2.21 µM (active)
[13]
  AC50: 3.13 µM (active)
[14]
  AC50: 8.46 µM (active)

## COC(=O)C[C@H]1c2cc(C(F)(F)F)ccc2S(=O)(=O)N1Cc1ccc(OC)cc1
Vero
  AC50: 34.6 µM (active)

## COc1ccccc1NCc1nnc(SCC(=O)N/N=C/c2ccco2)n1-c1ccc(Cl)cc1Cl
[15]
  AC50: > 100 µM (inactive)
Cytochrome P450 2D6
  AC50: 28.2 µM (inconclusive)
Cytochrome P450 1A2
  AC50: 28.2 µM (inconclusive)
Cytochrome P450 2C9
  AC50: 35.5 µM (inconclusive)

## CCCOc1ccc(C(=O)N/N=C/c2ccc(-c3ccc(S(=O)(=O)Nc4ncccn4)cc3)o2)cc1
Aminopeptidase N
  IC50: 26.1 µM (active)
Genome polyprotein
  IC50: > 100 µM (active)
[6]
  IC50: 6.45 µM (active)
[7]
  IC50: 31 µM (active)
